Assay results as given in patent US12077503B2, “Substituted cyclic amides and their use as herbicides” (FMC CORPORATION, priority 2015, dated 2024).

Assays:
Type in all cases: in vivo
rice (Oryra sativa) = assay: Test B flooded paddy test; conditions: Oryza sativa, 360 h, Flood, 250 g ai/ha; visually evaluated after 13 to 15 d; read-out: Plant response rating, Rice (0 to 100 scale where 0 is no effect and 100 is complete control)
How it was run: (§1)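 2-leaf plants; pots flooded 3 cm over soil; cpd added to paddy water; depth held; greenhouse 13–15 d; visual rating vs controls, 0 = no effect, 100 = complete control.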

[1] = system: sedge, umbrella (small-flower umbrella sedge, Cyperus difformis); assay: Test B flooded paddy test; conditions: Cyperus difformis, 360 h, Flood, 250 g ai/ha; visually evaluated after 13 to 15 d; read-out: Plant response rating, Sedge, Umbrella (0 to 100 scale where 0 is no effect and 100 is complete control)
How it was run: as §1

[2] = system: barnyardgrass (Echinochloa crus-galli); assay: Test B flooded paddy test; conditions: Echinochloa crus-galli, 360 h, Flood, 250 g ai/ha; visually evaluated after 13 to 15 d; read-out: Plant response rating, Barnyardgrass (0 to 100 scale where 0 is no effect and 100 is complete control)
How it was run: as §1

[3] = system: ducksalad (Heteranthera limosa); assay: Test B flooded paddy test; conditions: Heteranthera limosa, 360 h, Flood, 250 g ai/ha; visually evaluated after 13 to 15 d; read-out: Plant response rating, Ducksalad (0 to 100 scale where 0 is no effect and 100 is complete control)
How it was run: as §1

[4] = system: blackgrass (Alopecurus myosuroides); assay: Test A postemergence; conditions: Alopecurus myosuroides, post-emergence, 240 h, Postemergence, read-out: Blackgrass plant response rating (0 to 100 scale)
How it was run: (§2)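 In a loam soil and sand blend, planted seeds got a preemergence directed soil spray, and young plants at the one- to two-leaf stage, 2–10 cm high, got a postemergence application; ~10 d greenhouse hold; injury rated visually, 0 = none, 100 = complete control.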

corn (Zea mays) = assay: Test A postemergence; conditions: Zea mays, post-emergence, 240 h, Postemergence, read-out: Corn plant response rating (0 to 100 scale)
How it was run: as §2

[5] = system: giant foxtail (Setaria faberii); assay: Test A postemergence; conditions: Setaria faberi, post-emergence, 240 h, Postemergence, read-out: Foxtail, Giant plant response rating (0 to 100 scale)
How it was run: as §2

[6] = system: Galium (catchweed bedstraw, Galium aparine); assay: Test A postemergence; conditions: Galium, post-emergence, 240 h, Postemergence, read-out: Galium plant response rating (0 to 100 scale)
How it was run: as §2

[7] = system: barnyardgrass (Echinochloa crus-galli); assay: Test A postemergence; conditions: Echinochloa crus-galli, post-emergence, 240 h, Postemergence
How it was run: as §2

[8] = system: pigweed (Amaranthus retroflexus); assay: Test A postemergence; conditions: Amaranthus retroflexus, post-emergence, 240 h, Postemergence, read-out: Pigweed plant response rating (0 to 100 scale)
How it was run: as §2

Kochia (Kochia scoparia) [9] = assay: Test A postemergence; conditions: Bassia scoparia, post-emergence, 240 h, Postemergence, read-out: Kochia plant response rating (0 to 100 scale)
How it was run: as §2

[10] = system: wheat (Triticum aestivum); assay: Test A postemergence; conditions: Triticum aestivum, post-emergence, 240 h, Postemergence, read-out: Wheat plant response rating (0 to 100 scale)
How it was run: as §2

[11] = system: ragweed (common ragweed, Ambrosia elatior); assay: Test A postemergence; conditions: Ambrosia artemisiifolia, post-emergence, 240 h, Postemergence, read-out: Ragweed plant response rating (0 to 100 scale)
How it was run: as §2

[12] = system: ryegrass, Italian (Italian ryegrass, Lolium multiflorum); assay: Test A postemergence; conditions: Lolium multiflorum, post-emergence, 240 h, Postemergence, read-out: Ryegrass, Italian plant response rating (0 to 100 scale)
How it was run: as §2

[13] = system: giant foxtail (Setaria faberii); assay: Test A preemergence; conditions: Setaria faberi, pre-emergence, 240 h, Preemergence
How it was run: as §2

[14] = system: barnyardgrass (Echinochloa crus-galli); assay: Test A preemergence; conditions: Echinochloa crus-galli, pre-emergence, 240 h, Preemergence
How it was run: as §2

[15] = system: pigweed (Amaranthus retroflexus); assay: Test A preemergence; conditions: Amaranthus retroflexus, pre-emergence, 240 h, Preemergence
Kochia (Kochia scoparia) [16] = assay: Test A preemergence; conditions: Bassia scoparia, pre-emergence, 240 h, Preemergence
How it was run: as §2

[17] = system: ragweed (common ragweed, Ambrosia elatior); assay: Test A preemergence; conditions: Ambrosia artemisiifolia, pre-emergence, 240 h, Preemergence
How it was run: as §2

[18] = system: ryegrass, Italian (Italian ryegrass, Lolium multiflorum); assay: Test A preemergence; conditions: Lolium multiflorum, pre-emergence, 240 h, Preemergence
How it was run: as §2

[19] = 125 g ai/ha, visual rating about 10 d after treatment
[20] = 31 g ai/ha, 0 is no effect, 100 is complete control

Cc1cccc([C@H]2CN(C)C(=O)[C@@H]2C(=O)Nc2cnccc2C)c1 [Compound 1344]
0%: pest or weed control at 250 g/ha (rice (Oryra sativa)) | pest or weed control at 250 g/ha [1] | pest or weed control at 250 g/ha [2] | pest or weed control at 250 g/ha [3] | pest or weed control at 125 g/ha [4, 19] | pest or weed control at 31 g/ha [4, 20] | plant injury at 125 g/ha (corn (Zea mays); [19]) | plant injury at 31 g/ha (corn (Zea mays); [20]) | pest or weed control at 125 g/ha [5, 19] | pest or weed control at 31 g/ha [5, 20] | pest or weed control at 125 g/ha [6, 19] | pest or weed control at 31 g/ha [6, 20] | pest or weed control at 125 g/ha ([7]; 125 g ai/ha, visual rating about 10 d after treatment, read-out: Barnyardgrass plant response rating (0 to 100 scale, 0 no effect, 100 complete control)) | pest or weed control at 31 g/ha ([7]; 31 g ai/ha, 0 is no effect, 100 is complete control, read-out: Barnyardgrass plant response rating (0 to 100 scale)) | pest or weed control at 125 g/ha [8, 19] | pest or weed control at 31 g/ha [8, 20] | pest or weed control at 125 g/ha (Kochia (Kochia scoparia) [9]; [19]) | pest or weed control at 31 g/ha (Kochia (Kochia scoparia) [9]; [20]) | plant injury at 125 g/ha [10, 19] | plant injury at 31 g/ha [10, 20] | pest or weed control at 125 g/ha [11, 19] | pest or weed control at 31 g/ha [11, 20] | pest or weed control at 125 g/ha [12, 19] | pest or weed control at 31 g/ha [12, 20] | pest or weed control at 31 g/ha ([13]; 31 g ai/ha, 0 to 100 scale where 0 is no effect and 100 is complete control, read-out: Foxtail, Giant plant response rating) | pest or weed control at 125 g/ha ([13]; 125 g ai/ha, 0 to 100 scale (0 no effect, 100 complete control), read-out: Plant response rating, Foxtail, Giant) | pest or weed control at 31 g/ha ([14]; 31 g ai/ha, 0 to 100 scale where 0 is no effect and 100 is complete control, read-out: Barnyardgrass plant response rating) | pest or weed control at 125 g/ha ([14]; 125 g ai/ha, 0 to 100 scale (0 no effect, 100 complete control), read-out: Plant response rating, Barnyardgrass) | pest or weed control at 31 g/ha ([15]; 31 g ai/ha, 0 to 100 scale where 0 is no effect and 100 is complete control, read-out: Pigweed plant response rating) | pest or weed control at 125 g/ha ([15]; 125 g ai/ha, 0 to 100 scale (0 no effect, 100 complete control), read-out: Plant response rating, Pigweed) | pest or weed control at 31 g/ha (Kochia (Kochia scoparia) [16]; 31 g ai/ha, 0 to 100 scale where 0 is no effect and 100 is complete control, read-out: Kochia plant response rating) | pest or weed control at 125 g/ha (Kochia (Kochia scoparia) [16]; 125 g ai/ha, 0 to 100 scale (0 no effect, 100 complete control), read-out: Plant response rating, Kochia) | pest or weed control at 31 g/ha ([17]; 31 g ai/ha, 0 to 100 scale where 0 is no effect and 100 is complete control, read-out: Ragweed plant response rating) | pest or weed control at 125 g/ha ([17]; 125 g ai/ha, 0 to 100 scale (0 no effect, 100 complete control), read-out: Plant response rating, Ragweed) | pest or weed control at 31 g/ha ([18]; 31 g ai/ha, 0 to 100 scale where 0 is no effect and 100 is complete control, read-out: Ryegrass, Italian plant response rating) | pest or weed control at 125 g/ha ([18]; 125 g ai/ha, 0 to 100 scale (0 no effect, 100 complete control), read-out: Plant response rating, Ryegrass, Italian)
